Tests used:
[1] = molecular target: Cholinesterase (Equus caballus, UniProt P81908); assay: Inhibition of equine serum BuChE using butyrylthiocholine iodide as substrate measured for 6 mins by Ellman's method
[2] = Selectivity index, ratio of IC50 for equine serum BuChE to IC50 for electric eel AChE
[3] = molecular target: T1, Acetylcholinesterase (Electrophorus electricus, UniProt O42275); assay: Inhibition of electric eel AChE using acetylthiocholine iodide as substrate measured for 6 mins by Ellman's method
T1 sequence (O42275 whole entry): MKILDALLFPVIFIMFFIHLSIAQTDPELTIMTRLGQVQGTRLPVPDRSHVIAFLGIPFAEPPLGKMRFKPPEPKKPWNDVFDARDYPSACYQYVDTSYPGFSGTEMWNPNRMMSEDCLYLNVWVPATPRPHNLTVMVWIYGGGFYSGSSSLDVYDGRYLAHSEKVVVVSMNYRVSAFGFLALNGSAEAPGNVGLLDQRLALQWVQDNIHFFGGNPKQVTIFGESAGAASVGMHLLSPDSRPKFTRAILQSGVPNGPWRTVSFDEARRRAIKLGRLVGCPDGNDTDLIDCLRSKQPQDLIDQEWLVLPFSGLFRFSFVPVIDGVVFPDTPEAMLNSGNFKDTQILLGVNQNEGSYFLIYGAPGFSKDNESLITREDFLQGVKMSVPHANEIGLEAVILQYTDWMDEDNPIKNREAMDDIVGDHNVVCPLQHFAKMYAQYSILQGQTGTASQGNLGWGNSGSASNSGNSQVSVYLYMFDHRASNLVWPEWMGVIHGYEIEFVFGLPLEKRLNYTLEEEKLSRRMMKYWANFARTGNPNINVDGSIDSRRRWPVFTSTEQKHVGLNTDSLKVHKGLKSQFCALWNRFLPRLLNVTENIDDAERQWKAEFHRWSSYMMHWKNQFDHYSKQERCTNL

[4] = molecular target: T1, Acetylcholinesterase; assay: Mixed-type inhibition of electric eel AChE using varying levels of acetylthiocholine iodide as substrate measured for 2 mins by Lineweaver-Burk plot analysis
[5] = molecular target: Beta-secretase 1 (Homo sapiens) (UniProt P56817); assay: Inhibition of human BACE1 using Rh-EVNLDAEFK-quencher as substrate measured after 60 mins by FRET assay
Chain of Beta-secretase 1 (Homo sapiens) (P56817 whole entry): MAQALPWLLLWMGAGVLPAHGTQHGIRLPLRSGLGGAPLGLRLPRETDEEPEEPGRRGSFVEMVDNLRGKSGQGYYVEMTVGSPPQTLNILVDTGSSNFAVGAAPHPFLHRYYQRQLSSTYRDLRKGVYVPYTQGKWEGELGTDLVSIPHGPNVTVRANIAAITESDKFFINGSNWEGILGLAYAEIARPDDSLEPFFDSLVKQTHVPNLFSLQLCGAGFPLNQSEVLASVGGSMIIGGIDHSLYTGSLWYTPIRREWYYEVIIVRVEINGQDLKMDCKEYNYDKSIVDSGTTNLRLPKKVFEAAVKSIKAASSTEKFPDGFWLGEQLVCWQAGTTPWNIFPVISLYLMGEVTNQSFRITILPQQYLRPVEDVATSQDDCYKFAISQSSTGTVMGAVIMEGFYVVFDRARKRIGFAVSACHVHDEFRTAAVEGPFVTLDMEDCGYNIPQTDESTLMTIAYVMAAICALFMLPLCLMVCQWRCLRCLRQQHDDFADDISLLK

[6] = tested on: PC-12; assay: Neuroprotective activity against H2O2-induced cell death in rat PC12 cells assessed as cell viability 10 uM pretreated for three hours followed by H2O2 induction after 12 hrs by MTT assay relative to control; format: functional

Chain of Cholinesterase (P81908 whole entry): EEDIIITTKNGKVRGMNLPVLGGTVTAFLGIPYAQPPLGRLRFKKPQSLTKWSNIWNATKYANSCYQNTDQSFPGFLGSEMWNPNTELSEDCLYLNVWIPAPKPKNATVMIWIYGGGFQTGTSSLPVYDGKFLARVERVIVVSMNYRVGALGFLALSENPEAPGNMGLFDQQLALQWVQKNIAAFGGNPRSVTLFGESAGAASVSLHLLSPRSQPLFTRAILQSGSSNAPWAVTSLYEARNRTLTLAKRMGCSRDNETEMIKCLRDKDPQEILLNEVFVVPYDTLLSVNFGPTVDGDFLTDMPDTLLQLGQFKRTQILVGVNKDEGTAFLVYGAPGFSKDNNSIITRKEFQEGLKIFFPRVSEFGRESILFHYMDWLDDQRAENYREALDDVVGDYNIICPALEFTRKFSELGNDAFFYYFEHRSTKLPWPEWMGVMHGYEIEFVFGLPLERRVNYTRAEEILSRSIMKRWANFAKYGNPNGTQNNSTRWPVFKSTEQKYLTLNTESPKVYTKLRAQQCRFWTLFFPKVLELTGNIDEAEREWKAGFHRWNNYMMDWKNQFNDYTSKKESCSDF

Work on `N#CC1=C(NC(=O)CN2CCOCC2)Oc2c(c(=O)oc3ccccc23)C1c1ccc(Cl)cc1` (configuration not stated) yielded an IC50 ([1]; read-out: IC50) of 91.5 µM, a Ratio IC50 [2] of 6.3 and an IC50 ([3]; read-out: IC50) of 14.6 µM.

With `COc1ccc(C2C(C#N)=C(NC(=O)CN3CCN(c4ccccc4)CC3)Oc3c2c(=O)oc2ccccc32)cc1` (configuration not stated) the Ki [4] was 3.19 µM, the IC50 ([1]; read-out: IC50) was 45.7 µM and the Ratio IC50 [2] was 40.8. The inhibition [5] was 18%, the IC50 ([3]; read-out: IC50) was 1.12 µM and the Activity [6] was 84.7%.

With `N#CC1=C(NC(=O)CN2CCN(c3ccccc3)CC2)Oc2c(c(=O)oc3ccccc23)C1c1ccc([N+](=O)[O-])cc1` (configuration not stated) the IC50 [1] was “Nd(Insoluble)” and the IC50 [3] was “Nd(Insoluble)”.

Work on `N#CC1=C(NC(=O)CN2CCOCC2)Oc2c(c(=O)oc3ccccc23)C1c1ccc(F)cc1` (configuration not stated) yielded an IC50 ([1]; read-out: IC50) greater than 100 µM and an IC50 ([3]; read-out: IC50) greater than 100 µM.

With `N#CC1=C(NC(=O)CN2CCN(c3ccccc3)CC2)Oc2c(c(=O)oc3ccccc23)C1c1ccc(F)cc1` (configuration not stated) the IC50 [1] was “Nd(Insoluble)” and the IC50 [3] was “Nd(Insoluble)”.

With `COc1ccc(C2C(C#N)=C(NC(=O)CN3CCN(c4ccccc4)CC3)Oc3c2c(=O)oc2ccccc32)cc1OC` (configuration not stated) the IC50 ([1]; read-out: IC50) was 58.2 µM, the Ratio IC50 [2] was 41 and the IC50 ([3]; read-out: IC50) was 1.42 µM. It also gave an Activity [6] of 76%.

In the case of `N#CC1=C(NC(=O)CN2CCOCC2)Oc2c(c(=O)oc3ccccc23)C1c1ccc([N+](=O)[O-])cc1` (configuration not stated), the IC50 ([1]; read-out: IC50) is reported as greater than 100 µM and the IC50 ([3]; read-out: IC50) is reported as greater than 100 µM.

Work on `COc1ccc(C2C(C#N)=C(NC(=O)CN3CCOCC3)Oc3c2c(=O)oc2ccccc32)cc1` (configuration not stated) yielded an IC50 ([1]; read-out: IC50) of 63.8 µM, a Ratio IC50 [2] of 31.1 and an IC50 ([3]; read-out: IC50) of 2.05 µM. The Activity [6] was 78.5%.

With `N#CC1=C(NC(=O)CN2CCOCC2)Oc2c(c(=O)oc3ccccc23)C1c1ccccc1` (configuration not stated) the IC50 ([1]; read-out: IC50) was 88.4 µM, the Ratio IC50 [2] was 3.7 and the IC50 ([3]; read-out: IC50) was 23.9 µM.

Work on `COc1ccc(C2C(C#N)=C(NC(=O)CN3CCOCC3)Oc3c2c(=O)oc2ccccc32)cc1OC` (configuration not stated) yielded an IC50 ([1]; read-out: IC50) of 34.2 µM, a Ratio IC50 [2] of 10.5 and an IC50 ([3]; read-out: IC50) of 3.25 µM. It also gave an Activity [6] of 84.7%.

For `Cc1ccc(C2C(C#N)=C(NC(=O)CN3CCN(c4ccccc4)CC3)Oc3c2c(=O)oc2ccccc32)c(C)c1` (configuration not stated), the IC50 ([1]; read-out: IC50) was greater than 100 µM and the IC50 ([3]; read-out: IC50) was 32.9 µM.

In the case of `COc1ccc(C2C(C#N)=C(NC(=O)CN3CCN(c4ccccc4)CC3)Oc3c2c(=O)oc2ccccc32)c(OC)c1` (configuration not stated), the IC50 ([1]; read-out: IC50) is reported as greater than 100 µM and the IC50 ([3]; read-out: IC50) is reported as 31.4 µM.

Compound `N#CC1=C(NC(=O)CN2CCN(c3ccccc3)CC2)Oc2c(c(=O)oc3ccccc23)C1c1ccccc1` (configuration not stated) has an IC50 ([1]; read-out: IC50) of 52.3 µM, a Ratio IC50 [2] of 4.5 and an IC50 ([3]; read-out: IC50) of 11.5 µM.

In the case of `COc1ccc(C2C(C#N)=C(NC(=O)CN3CCOCC3)Oc3c2c(=O)oc2ccccc32)c(OC)c1` (configuration not stated), the IC50 ([1]; read-out: IC50) is reported as greater than 100 µM and the IC50 ([3]; read-out: IC50) is reported as 25.6 µM.

With `N#CC1=C(NC(=O)CN2CCN(c3ccccc3)CC2)Oc2c(c(=O)oc3ccccc23)C1c1ccc(Cl)cc1` (configuration not stated) the IC50 ([1]; read-out: IC50) was 89.2 µM, the Ratio IC50 [2] was 14.1 and the IC50 ([3]; read-out: IC50) was 6.33 µM. The Activity [6] was 75%.

For `N#CC1=C(NC(=O)CN2CCOCC2)Oc2c(c(=O)oc3ccccc23)C1c1cccs1` (configuration not stated), the IC50 ([1]; read-out: IC50) was greater than 100 µM and the IC50 ([3]; read-out: IC50) was greater than 100 µM.

— ChEMBL document CHEMBL4052662, “Synthesis, docking study and neuroprotective effects of some novel pyrano[3,2-c]chromene derivatives bearing morpholine/phenylpiperazine moiety” (Bioorg Med Chem, 2017)
